The source of these data is patent US20120149718A1, “Amido Compounds” (priority 2010, published 2012).

For series [1], the target named is T1, human P2X7 (Homo sapiens, UniProt Q99572).
T1 construct: 1321N1 cells stably expressing the full length human P2X7 gene (1321N1-hP2X7)
T1 sequence (Q99572 1-595): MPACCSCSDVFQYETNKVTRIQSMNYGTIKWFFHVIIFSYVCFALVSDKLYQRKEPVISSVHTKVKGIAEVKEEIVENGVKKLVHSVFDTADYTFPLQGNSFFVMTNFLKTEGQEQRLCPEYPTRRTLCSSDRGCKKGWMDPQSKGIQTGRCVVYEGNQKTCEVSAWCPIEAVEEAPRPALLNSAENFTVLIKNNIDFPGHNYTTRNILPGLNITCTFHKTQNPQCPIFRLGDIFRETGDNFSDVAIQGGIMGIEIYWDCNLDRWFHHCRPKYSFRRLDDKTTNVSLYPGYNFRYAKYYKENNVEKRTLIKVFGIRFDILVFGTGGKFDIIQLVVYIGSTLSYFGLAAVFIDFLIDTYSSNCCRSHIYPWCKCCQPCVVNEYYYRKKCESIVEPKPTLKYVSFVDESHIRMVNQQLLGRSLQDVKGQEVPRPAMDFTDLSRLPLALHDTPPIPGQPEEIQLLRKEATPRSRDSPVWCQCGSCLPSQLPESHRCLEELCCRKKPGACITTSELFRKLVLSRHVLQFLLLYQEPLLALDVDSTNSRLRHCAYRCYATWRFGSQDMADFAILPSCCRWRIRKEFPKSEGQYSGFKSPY
In words: Intracellular Calcium Flux (FLIPR) Assay. The conditions noted are these: 1321N1 cells stably expressing full length human P2X7; agonist 100 μM BzATP; fluo-3 calcium flux; read-out: FLIPR pIC50 hP2X7-1321n1 (converted). It counts as cell-based. The procedure:
Stock solutions of compounds were prepared from powders as a 10 mM DMSO stock solution. These solutions were stored at RT during the two week period of these experiments to prevent freeze-thaw of the DMSO stocks. The DMSO stocks were added to the appropriate assay buffer at a concentration of 10 μM, and then diluted serially to the final concentrations that were tested. No observable precipitate was formed at any time during this process. The aqueous solutions of compounds as well as ATP (Sigma A7699) and BzATP (Sigma B6396) were prepared fresh for each day of experiment.
1321N1 cells stably expressing the full length human P2X7 gene (1321N1-hP2X7) and HEK293 cells stably expressing the full length rat P2X7 gene (HEK293-rP2X7) were obtained from the Roche Cell Culture Facility. 1321N1-hP2X7 cells were grown in Dulbecco's Modified Eagle's Medium (DMEM) high glucose supplemented with 10% FBS and 250 μg/mL G418. HEK293-rP2X7 cells were grown in DMEM/F-12 supplemented with 10% FBS, 1 mM CaCl2, 2 mM MgCl2, 2 mM L-Glutamine and 500 μg/ml G418. Cells were split such that they never became >70% confluent.
On the day prior to the experiment, 1321N1-hP2X7 or HEK293-rP2X7 cells were released into suspension with calcium-free PBS+Versene and washed by centrifugation with calcium-free PBS to remove the Versene. Cells were resuspended in growth medium at a density of 2.5×10^5 cells/mL and seeded into black walled, clear bottom 96 well plates (50,000 cells/well) approximately 18 hr prior to intracellular calcium flux experiments.
On the day of the experiment, plates were washed with FLIPR buffer (calcium- and magnesium-free Hank's Balanced Salt Solution (HBSS) supplemented with 10 mM Hepes, 2.5 mM probenecid and 2 mM calcium chloride) using a BIO-TEK 96 channel plate washer and incubated with […] fluo-3 dye at 37° C. for one hr. The dye was then removed by plate washing and the cells were allowed to equilibrate for 20 min at room temperature with antagonist or vehicle (FLIPR buffer). Agonist (100 μM BzATP final concentration for hP2X7; 5 μM BzATP final concentration or rP2X7) was added online with the FLIPR and fluorescence measurements made at 1 sec intervals for 60 sec followed by 3 sec intervals for a further 4 min (5 min total). A final addition of 5 μM ionomycin was made and the maximal BzATP-evoked fluorescence normalized to the maximal ionomycin-evoked fluorescence.
In general terms: Calcium flux is commonly read through the fluorescence of an indicator in the cells.

A word on the melting point: it is the temperature, or range, at which the solid turns liquid.

As for `CS(=O)(=O)c1ccc(C(Cc2ccc(F)cc2)C(=O)Nc2nc3ncccc3o2)cc1` (stereo not drawn) [Compound I-18, 3-(4-Fluoro-phenyl)-2-(4-methanesulfonyl-phenyl)-N-oxazolo[4,5-b]pyridin-2-yl-propionamide], the melting point fell in the range of 261 to 263.7 °C. Besides, the IC50 in series [1] is 234 nM.

The molecule `Cc1ccccc1CC(C(=O)Nc1nc2ccccc2o1)c1ccc(S(C)(=O)=O)cc1` (stereo not drawn) [Compound I-2, N-Benzooxazol-2-yl-2-(4-methanesulfonyl-phenyl)-3-o-tolyl-propionamide] had a melting point of 105.7 to 108.9 °C. Moreover, the IC50 in series [1] is 302 nM.

As to `NC(=O)c1ccc(C(Cc2ccc(F)cc2)C(=O)Nc2nc3ccccc3o2)cc1` (stereo not drawn) [Compound I-32, 4-[1-(Benzooxazol-2-ylcarbamoyl)-2-(4-fluoro-phenyl)-ethyl]-benzamide], the melting point was 137 to 139 °C. Moreover, the IC50 in series [1] was 20.4 nM.

As to `CS(=O)(=O)c1ccc(C(Cc2ccc(F)cc2Cl)C(=O)Nc2nc3ccccc3o2)cc1` (stereo not drawn) [Compound I-6, N-Benzooxazol-2-yl-3-(2-chloro-4-fluoro-phenyl)-2-(4-methanesulfonyl-phenyl)-propionamide], the melting point is 127 to 128 °C. Moreover, the IC50 in series [1] was 794 nM.

In turn, `Cc1ccccc1CC(C(=O)Nc1cnc(Br)cn1)c1ccc(S(C)(=O)=O)cc1` (stereo not drawn) [Compound I-1, N-(5-Bromo-pyrazin-2-yl)-2-(4-methanesulfonyl-phenyl)-3-o-tolyl-propionamide] had a melting point of 193.5 to 194.8 °C. Further, the IC50 in series [1] was 389 nM.

The molecule `CS(=O)(=O)c1ccc(C(Cc2cccc(F)c2)C(=O)Nc2cnc(CO)cn2)cc1` (stereo not drawn) [Compound I-26, 3-(3-Fluoro-phenyl)-N-(5-hydroxymethyl-pyrazin-2-yl)-2-(4-methanesulfonyl-phenyl)-propionamide] had a melting point of 82.8 to 98.7 °C. The IC50 in series [1] was 339 nM.

Molecule `CCOCc1cnc(NC(=O)C(Cc2ccc(F)cc2)c2ccc(S(C)(=O)=O)cc2)cn1` (stereo not drawn) [Compound I-22, N-(5-Ethoxymethyl-pyrazin-2-yl)-3-(4-fluoro-phenyl)-2-(4-methanesulfonyl-phenyl)-propionamide] returned a melting point of 99 to 100 °C. Moreover, the IC50 in series [1] is 741 nM.

`CC(C)(O)c1ccc(C(Cc2ccc(F)cc2)C(=O)Nc2nc3ccccc3o2)cc1` (stereo not drawn) [Compound I-31, N-Benzooxazol-2-yl-3-(4-fluoro-phenyl)-2-[4-(1-hydroxy-1-methyl-ethyl)-phenyl]-propionamide] displayed a melting point of 87 to 90 °C. For the same molecule, in series [1], the IC50 is 282 nM.

For `CS(=O)(=O)c1ccc(C(Cc2ccc(F)cc2)C(=O)Nc2cnc(CO)cn2)cc1` (stereo not drawn) [Compound I-16, 3-(4-Fluoro-phenyl)-N-(5-hydroxymethyl-pyrazin-2-yl)-2-(4-methanesulfonyl-phenyl)-propionamide], in series [1], the IC50 is 117 nM.

On to `COCCN(C)Cc1cnc(NC(=O)C(Cc2ccc(F)cc2)c2ccc(S(C)(=O)=O)cc2)cn1` (stereo not drawn) [Compound I-23, 3-(4-Fluoro-phenyl)-2-(4-methanesulfonyl-phenyl)-N-(5-{[(2-methoxy-ethyl)-methyl-amino]-methyl}-pyrazin-2-yl)-propionamide], for which the IC50 in series [1] was 646 nM.

On to `CS(=O)(=O)c1ccc([C@H](Cc2ccc(F)cc2)C(=O)Nc2cnc(CO)cn2)cc1` [Compound I-50b, (S)-3-(4-Fluoro-phenyl)-N-(5-hydroxymethyl-pyrazin-2-yl)-2-(4-methanesulfonyl-phenyl)-propionamide], for which the IC50 in series [1] was greater than 10000 nM.

`CS(=O)(=O)c1ccc(C(Cc2ccc(F)cc2)C(=O)Nc2nc3ccncc3o2)cc1` (stereo not drawn) [Compound I-52, 3-(4-Fluoro-phenyl)-2-(4-methanesulfonyl-phenyl)-N-oxazolo[5,4-c]pyridin-2-yl-propionamide]: the IC50 in series [1] was 66.1 nM.

As for `CN(Cc1ccccc1)Cc1cnc(NC(=O)C(Cc2ccc(F)cc2)c2ccc(S(C)(=O)=O)cc2)cn1` (stereo not drawn) [Compound I-24, N-{5-[(Benzyl-methyl-amino)-methyl]-pyrazin-2-yl}-3-(4-fluoro-phenyl)-2-(4-methanesulfonyl-phenyl)-propionamide], in series [1], the IC50 is 1050 nM.

On to `CS(=O)(=O)c1ccc(C(Cc2ccc(F)cc2)C(=O)Nc2nc3cnccc3o2)cc1` (stereo not drawn) [Compound I-51, 3-(4-Fluoro-phenyl)-2-(4-methanesulfonyl-phenyl)-N-oxazolo[4,5-c]pyridin-2-yl-propionamide], for which the IC50 in series [1] is 31.6 nM.

As for `CS(=O)(=O)c1ccc(CC(C(=O)Nc2nc3ccccc3o2)c2ccc(F)cc2)cc1` (stereo not drawn) [Compound I-53, N-Benzooxazol-2-yl-2-(4-fluoro-phenyl)-3-(4-methanesulfonyl-phenyl)-propionamide], in series [1], the IC50 was 407 nM.

As for `Cc1cccc2nc(NC(=O)C(Cc3ccc(F)cc3)c3ccc(S(C)(=O)=O)cc3)oc12` (stereo not drawn) [Compound I-42, 3-(4-Fluoro-phenyl)-2-(4-methanesulfonyl-phenyl)-N-(7-methyl-benzooxazol-2-yl)-propionamide], in series [1], the IC50 is 28.8 nM.

Take `CS(=O)(=O)c1ccc(C(Cc2ccc(F)cc2)C(=O)Nc2nc3cc(Cl)ccc3o2)cc1` (stereo not drawn) [Compound I-39, N-(5-Chloro-benzooxazol-2-yl)-3-(4-fluoro-phenyl)-2-(4-methanesulfonyl-phenyl)-propionamide]: the IC50 in series [1] is 126 nM.

For the molecule `Cc1cc(S(C)(=O)=O)ccc1C(Cc1ccc(F)cc1)C(=O)Nc1nc2ccccc2o1` (stereo not drawn) [Compound I-27, N-Benzooxazol-2-yl-3-(4-fluoro-phenyl)-2-(4-methanesulfonyl-2-methyl-phenyl)-propionamide], the IC50 in series [1] is 204 nM.

Turning to `CS(=O)(=O)c1ccc(C(Cc2ccc(F)cc2)C(=O)Nc2nc3ccc(Cl)cc3o2)cc1` (stereo not drawn) [Compound I-38, N-(6-Chloro-benzooxazol-2-yl)-3-(4-fluoro-phenyl)-2-(4-methanesulfonyl-phenyl)-propionamide], in series [1], the IC50 is 316 nM.

Turning to `CS(=O)(=O)c1ccc(C(Cc2ccc(F)cc2)C(=O)Nc2nc3cc(F)ccc3o2)cc1` (stereo not drawn) [Compound I-46, N-(5-Fluoro-benzooxazol-2-yl)-3-(4-fluoro-phenyl)-2-(4-methanesulfonyl-phenyl)-propionamide], the IC50 in series [1] is 44.7 nM.

As to `Cc1ccc2nc(NC(=O)C(Cc3ccc(F)cc3)c3ccc(S(C)(=O)=O)cc3)oc2c1` (stereo not drawn) [Compound I-36, 3-(4-Fluoro-phenyl)-2-(4-methanesulfonyl-phenyl)-N-(6-methyl-benzooxazol-2-yl)-propionamide], the IC50 in series [1] was 191 nM.

In the case of `Cc1ccc2oc(NC(=O)C(Cc3ccc(F)cc3)c3ccc(S(C)(=O)=O)cc3)nc2c1` (stereo not drawn) [Compound I-37, 3-(4-Fluoro-phenyl)-2-(4-methanesulfonyl-phenyl)-N-(5-methyl-benzooxazol-2-yl)-propionamide], in series [1], the IC50 was 166 nM.

For `O=C(Nc1nc2ccccc2o1)C(Cc1ccc(F)cc1)c1ccncc1` (stereo not drawn) [Compound I-54, N-Benzooxazol-2-yl-3-(4-fluoro-phenyl)-2-pyridin-4-yl-propionamide], the IC50 in series [1] is 30.9 nM.

`CS(=O)(=O)c1ccc(C(Cc2ccc(F)cc2)C(=O)Nc2nc3cc(S(=O)(=O)N4CCCC4)ccc3o2)cc1` (stereo not drawn) [Compound I-47, 3-(4-Fluoro-phenyl)-2-(4-methanesulfonyl-phenyl)-N-[5-(pyrrolidine-1-sulfonyl)-benzooxazol-2-yl]-propionamide]: in series [1], the IC50 is 170 nM.

With `CS(=O)(=O)c1ccc(C(Cc2ccncc2)C(=O)Nc2nc3ccccc3o2)cc1` (stereo not drawn) [Compound I-55, N-Benzooxazol-2-yl-2-(4-methanesulfonyl-phenyl)-3-pyridin-4-yl-propionamide], in series [1], the IC50 is 661 nM.
